Earlier results, collected in US20190117852A1, “IMPROVEMENTS IN STENTS FOR THE RELEASE OF ACTIVE PRINCIPLES” (CID S.p.A., priority 2016, published 2019).

Details: duration of release; correlated to complete in vitro release at 30 hours

## CO[C@H]1C[C@@H]2CC[C@@H](C)[C@@](O)(O2)C(=O)C(=O)N2CCCC[C@H]2C(=O)O[C@H]([C@H](C)C[C@@H]2CC[C@@H](O)[C@H](OC)C2)CC(=O)[C@H](C)/C=C(\C)[C@@H](O)[C@@H](OC)C(=O)[C@H](C)C[C@H](C)/C=C/C=C/C=C/1C [Sirolimus]
  in vivo release after coronary implantation: greater than 30 days
